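Assay format: 96-well plates, 48-hour exposure. At the GI50, growth is halved.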 Activity calls are given as the source filed them. Cut-off read from the data, not from the text of the source: active = GI50 up to about 1.1 µM and inactive = higher.

Among the test systems are SW-620; NCI-H522; M14; HCC 2998; UO-31; Malme-3M; HCT-15; LXFL 529; UACC-62; SF-268; SK-OV-3; SN12C; OVCAR-8; OVCAR-5; IGROV-1; SK-MEL-5.
What all share (assay): NCI-60 cell line screen, 48 h

Take `CC12OC3(O)C4C5CC(C6C5C3C61)C42` (stereo not given): the GI50 in the test on SW-620 was > 100 µM (inactive); in the test with NCI-H522 it was > 100 µM (inactive); with M14, 29.4 µM (inactive); with HCC 2998, > 100 µM (inactive); with UO-31, > 100 µM (inactive); with Malme-3M, > 100 µM (inactive). Further, the GI50 is more than 100 µM with HCT-15; 22.9 µM (inactive) in the test with LXFL 529; > 100 µM (inactive) in the test on UACC-62; > 100 µM (inactive) in the test with SF-268; > 100 µM (inactive) in the test with SK-OV-3; > 100 µM (inactive) with SN12C. Also, in the test with OVCAR-8, the GI50 was > 100 µM (inactive).

Regarding `Cc1c(Cl)cccc1NC(=O)C(=O)C1C(=O)CC(C)(C)CC1=O`, the GI50 with SW-620, in the test on NCI-H522, in the test with M14, with OVCAR-5, in the test on HCC 2998 and in the test with UO-31 was > 100 µM (inactive) in each case. Moreover, the GI50 with Malme-3M was > 100 µM (inactive); in the test with HCT-15, more than 100 µM; in the test on IGROV-1 it was > 100 µM (inactive); with LXFL 529, > 100 µM (inactive); with UACC-62, > 100 µM (inactive); in the test on SF-268, > 100 µM (inactive). Moreover, the GI50 in the test on SK-OV-3, in the test with SK-MEL-5, in the test with SN12C and in the test on OVCAR-8 was > 100 µM (inactive) each time.

For `O=C(NCCO)c1ccc([N+](=O)[O-])cc1`, the GI50 in the test with SW-620, with NCI-H522, in the test on M14, in the test on HCC 2998, with UO-31 and in the test on Malme-3M was > 100 µM (inactive) in each case. The GI50 was more than 100 µM with HCT-15; > 100 µM (inactive) in the test with IGROV-1; > 100 µM (inactive) in the test on LXFL 529; > 100 µM (inactive) with UACC-62; > 100 µM (inactive) in the test on SF-268; > 100 µM (inactive) in the test on SK-OV-3. The GI50 in the test on SK-MEL-5, in the test with SN12C and in the test with OVCAR-8 was > 100 µM (inactive) each time.

On to `CCOC(=O)C(C(=O)OCC)=C1C=C(c2ccccc2)c2ccccc21`, for which the GI50 was 89.3 µM (inactive) with SW-620; 35.9 µM (inactive) in the test with M14; 38.6 µM (inactive) in the test on OVCAR-5; 7.29 µM (inactive) in the test on HCC 2998; > 100 µM (inactive) with UO-31; > 100 µM (inactive) in the test with Malme-3M. Further, the GI50 in the test with HCT-15 was 25.8 µM; in the test with IGROV-1, > 100 µM (inactive); in the test on LXFL 529 it was 53.2 µM (inactive); in the test with UACC-62, > 100 µM (inactive); with SF-268, > 100 µM (inactive); with SK-OV-3, > 100 µM (inactive). Besides, the GI50 was 31.1 µM (inactive) with SK-MEL-5, > 100 µM (inactive) in the test on SN12C and > 100 µM (inactive) in the test on OVCAR-8.

Take `C/C(CC(=O)Nc1ccc([N+](=O)[O-])cc1)=N\Nc1ccc([N+](=O)[O-])cc1[N+](=O)[O-]`: the GI50 was > 100 µM (inactive) in the test on SW-620; 25.9 µM (inactive) in the test with NCI-H522; > 100 µM (inactive) with M14; > 100 µM (inactive) with OVCAR-5; 13.9 µM (inactive) in the test with HCC 2998; 20.6 µM (inactive) with UO-31. Also, the GI50 was > 100 µM (inactive) in the test on Malme-3M; 7.66 µM with HCT-15; 71.8 µM (inactive) in the test with IGROV-1; 20.9 µM (inactive) in the test on LXFL 529; 49 µM (inactive) with UACC-62; 62.1 µM (inactive) with SF-268. Moreover, the results for the GI50 in the test with SK-OV-3, in the test on SK-MEL-5 and in the test on OVCAR-8 were > 100 µM (inactive), 47.4 µM (inactive) and > 100 µM (inactive), respectively.

Take `C[C@@H](NC1CCC[C@H]1O)c1ccccc1` (stereo not given in full): the GI50 in the test on SW-620, in the test on M14, in the test on OVCAR-5, in the test with HCC 2998, in the test on UO-31 and in the test on Malme-3M was > 100 µM (inactive) in each case. For the same molecule, the GI50 in the test with HCT-15 was more than 100 µM; in the test on IGROV-1, > 100 µM (inactive); in the test with LXFL 529, > 100 µM (inactive); with UACC-62, > 100 µM (inactive); in the test with SK-OV-3, > 100 µM (inactive); in the test on SK-MEL-5, > 100 µM (inactive). Moreover, the GI50 in the test on SN12C and in the test on OVCAR-8 was > 100 µM (inactive) throughout.

Take `CCOP(=O)(OCC)C1CCCCOC1=O` (stereo not given): the GI50 with SW-620 was > 100 µM (inactive); in the test with M14 it was > 100 µM (inactive); in the test with HCC 2998, > 100 µM (inactive); with UO-31 it was > 100 µM (inactive); in the test with Malme-3M it was > 100 µM (inactive); in the test with HCT-15, more than 100 µM. The GI50 in the test with IGROV-1, in the test on LXFL 529, with UACC-62, with SF-268, in the test on SK-OV-3 and in the test with SK-MEL-5 was > 100 µM (inactive) each time. For the same molecule, the GI50 was 95.9 µM (inactive) with SN12C and > 100 µM (inactive) in the test on OVCAR-8.

Take `NC(CCCNCc1ccccc1O)C(=O)O` (stereo not given): the GI50 in the test with SW-620, in the test with NCI-H522, in the test with M14, in the test with OVCAR-5, in the test with UO-31 and in the test with Malme-3M was > 100 µM (inactive) in each case. In addition, the GI50 in the test on HCT-15 was more than 100 µM; in the test with IGROV-1, > 100 µM (inactive); in the test on LXFL 529 it was > 100 µM (inactive); in the test with UACC-62, > 100 µM (inactive); in the test with SF-268 it was > 100 µM (inactive); in the test with SK-OV-3, > 100 µM (inactive). Besides, the GI50 with SK-MEL-5, with SN12C and in the test on OVCAR-8 was > 100 µM (inactive) throughout.

On to `CCCCCCCCC(O)C#CC(N)=O` (stereo not given), for which the GI50 is 14.1 µM (inactive) in the test on SW-620; 12.3 µM (inactive) with M14; 26.7 µM (inactive) in the test on OVCAR-5; 10.6 µM (inactive) in the test on HCC 2998; 10 µM (inactive) in the test on UO-31; 16.7 µM (inactive) with Malme-3M. Moreover, the GI50 with HCT-15 is 13.2 µM; with LXFL 529 it was 11.2 µM (inactive); in the test with UACC-62 it was 5.16 µM (inactive); in the test with SK-MEL-5, 12 µM (inactive); in the test with SN12C, 7.59 µM (inactive); with OVCAR-8, 9.42 µM (inactive).

Regarding `C=CCC1=C(C)C[C@@H]2CCC(=O)C=C12`, the GI50 with SW-620, with NCI-H522, with M14, in the test with OVCAR-5, with UO-31 and in the test on Malme-3M was > 100 µM (inactive) throughout. Also, the GI50 in the test on HCT-15 is more than 100 µM; in the test with IGROV-1, > 100 µM (inactive); with LXFL 529, > 100 µM (inactive); with UACC-62, > 100 µM (inactive); with SF-268 it was > 100 µM (inactive); in the test with SK-OV-3 it was > 100 µM (inactive). The GI50 in the test with SK-MEL-5, in the test with SN12C and with OVCAR-8 was > 100 µM (inactive) in each case.

As to `CC(=O)Nc1ccc(S(=O)(=O)N/N=C/CN2C(=O)c3ccccc3C2=O)cc1`, the GI50 with SW-620, with NCI-H522, in the test with M14, in the test on HCC 2998, in the test with UO-31 and in the test on Malme-3M was > 100 µM (inactive) throughout. The GI50 is more than 100 µM in the test with HCT-15; > 100 µM (inactive) with IGROV-1; > 100 µM (inactive) in the test with LXFL 529; > 100 µM (inactive) in the test on UACC-62; > 100 µM (inactive) with SF-268; > 100 µM (inactive) in the test on SK-MEL-5. In addition, the GI50 with SN12C and in the test on OVCAR-8 was > 100 µM (inactive) each time.

For `O=CC1CCC=CC1NC(=O)OCc1ccccc1` (stereo not given), the GI50 in the test on SW-620 was 37.2 µM (inactive); in the test with NCI-H522, > 100 µM (inactive); in the test with M14 it was 33.9 µM (inactive); in the test on OVCAR-5 it was > 100 µM (inactive); with UO-31, > 100 µM (inactive); in the test with HCT-15, 54.8 µM. The GI50 is > 100 µM (inactive) in the test with IGROV-1; 44.5 µM (inactive) with LXFL 529; 42.5 µM (inactive) in the test on UACC-62; 85.5 µM (inactive) in the test with SF-268; > 100 µM (inactive) in the test with SK-OV-3; 51.9 µM (inactive) with SK-MEL-5. Also, the figures for the GI50 in the test on SN12C and with OVCAR-8 were 35 µM (inactive) and 22.7 µM (inactive), respectively.

With `O=C1NC2(CCCCCC2)C2CCCCCCC12O` (stereo not given), the GI50 with SW-620, in the test with NCI-H522, with M14, in the test on OVCAR-5, in the test with UO-31 and in the test with Malme-3M was > 100 µM (inactive) in each case. In addition, the GI50 in the test with HCT-15 is more than 100 µM; with IGROV-1, > 100 µM (inactive); in the test on LXFL 529, > 100 µM (inactive); in the test with UACC-62, > 100 µM (inactive); in the test on SF-268, > 100 µM (inactive); in the test on SK-OV-3 it was > 100 µM (inactive). Besides, the GI50 in the test on SK-MEL-5, in the test on SN12C and in the test with OVCAR-8 was > 100 µM (inactive) throughout.

Turning to `C[C@]12CCC(=O)C(O)=C1CC[C@@H]1C2CC[C@]2(C)Nc3c(cnn3-c3ccccc3)CC12` (stereo not given in full), the GI50 with SW-620 is > 100 µM (inactive); in the test on M14, > 100 µM (inactive); in the test on OVCAR-5 it was > 100 µM (inactive); in the test with HCC 2998, > 100 µM (inactive); in the test with UO-31, 26.3 µM (inactive); with Malme-3M, 91 µM (inactive). For the same molecule, the GI50 in the test on HCT-15 was 49.9 µM; in the test with IGROV-1, > 100 µM (inactive); with LXFL 529 it was 42.6 µM (inactive); with UACC-62, 77.6 µM (inactive); in the test on SK-OV-3 it was > 100 µM (inactive); in the test on SK-MEL-5, 38.8 µM (inactive). For the same molecule, the GI50 with OVCAR-8 is 64.4 µM (inactive).

The values above are taken from ChEMBL document CHEMBL1201862, “PubChem BioAssay data set” (2004).
